Numbered stars: 1 amine (or outer) side, 2 acyl side, 3 side chain; on linkers, the order of the positions; unused ones are H or OH. Side chains are listed from the residue outwards. Ends that are not written are not given here. Peptide text beside a SMILES is read from it. * marks the point of attachment. TTDA(Palmitoyl) = CCCCCCCCCCCCCCCC(=O)NCCCOCCOCCOCCCN*; γGlu = O=C(O)[C@H](CCC(=O)[*:2])N[*:1]; Palmitoyl = CCCCCCCCCCCCCCCC(=O)*; Suc = O=C(CCC(=O)[*:2])[*:1]; Lauroyl = CCCCCCCCCCCC(=O)*; Decanoyl = CCCCCCCCCC(=O)*
Experiments:
C57BL/6 mice = test: Food intake in fasted mice after SC injection; format: in vivo; details: 5 mg/kg SC, 45 min after injection
How it was run: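 Saline, PrRP or a lipidated analog was injected SC (1-10 mg/kg) after a 17 h fast with free water, animals housed singly.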

rat PrRP receptor = biological target: T1, rat PrRP receptor (Rattus norvegicus, UniProt Q64121); test: Competitive binding in RC-4B/C rat pituitary cells (125I-rat PrRP31); details: for Ki / Displacement of rat 125I-PrRP binding: RC-4B/C cells; for Ki: displacement of 125I-rat PrRP31, read-out: Ki, RC-4B/C rat pituitary cells ^25I-rat PrRP31; for Displacement of rat 125I-PrRP binding: rat PrRP receptor; for % of PrRP31, RC-4B/C rat pituitary cells: affinity relative to PrRP31
T1 construct: host or cells: RC-4B/C rat pituitary cell line
T1 sequence (Q64121 1-370): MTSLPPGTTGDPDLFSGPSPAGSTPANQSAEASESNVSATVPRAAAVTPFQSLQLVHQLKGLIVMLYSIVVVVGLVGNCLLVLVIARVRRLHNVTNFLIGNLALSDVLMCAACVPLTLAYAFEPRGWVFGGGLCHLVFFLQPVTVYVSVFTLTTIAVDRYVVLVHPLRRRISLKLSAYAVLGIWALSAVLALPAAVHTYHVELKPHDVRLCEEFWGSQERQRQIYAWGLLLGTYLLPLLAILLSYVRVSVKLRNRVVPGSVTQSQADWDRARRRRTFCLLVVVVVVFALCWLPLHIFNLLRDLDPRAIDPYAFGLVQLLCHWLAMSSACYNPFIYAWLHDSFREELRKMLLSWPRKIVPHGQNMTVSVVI
How it was run: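 Displacement of rat 125I-PrRP31 ([…]) by test analogs, 10^−11–10^−4 mol·l^−1, on whole RC-4B/C cells, 60 min RT. Bound counts measured by γ-counter in duplicate, ≥3 repeats, analyzed by nonlinear one-site binding regression.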

[1] = biological target: T2, human PrRP receptor GPR10 (Homo sapiens, UniProt P49683); test: Competitive binding in CHO cells transfected with human GPR10 (human 125I-PrRP31); details: for Ki: CHO cells, human 125I-PrRP31, read-out: Ki, GPR10 human receptor transfected in CHO cells; for % of PrRP31, GPR10 human receptor transfected in CHO cells: affinity relative to PrRP31; for Displacement of human 125I-PrRP binding: human GPR10 receptor
T2 construct: host or cells: CHO cells
T2 sequence (P49683 1-370): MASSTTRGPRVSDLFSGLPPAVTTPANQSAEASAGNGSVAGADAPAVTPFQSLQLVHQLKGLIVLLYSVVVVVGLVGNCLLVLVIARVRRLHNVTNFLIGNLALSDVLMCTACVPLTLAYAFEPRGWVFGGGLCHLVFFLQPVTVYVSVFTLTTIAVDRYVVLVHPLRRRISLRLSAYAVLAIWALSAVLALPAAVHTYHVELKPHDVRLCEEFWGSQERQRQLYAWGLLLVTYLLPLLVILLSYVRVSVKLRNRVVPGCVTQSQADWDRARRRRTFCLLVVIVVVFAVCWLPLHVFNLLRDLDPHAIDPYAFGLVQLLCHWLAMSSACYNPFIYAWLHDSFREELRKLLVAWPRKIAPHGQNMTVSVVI
How it was run: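 Values from one-site nonlinear regression of displacement curves: analogs (final 10^-11 to 10^-4 mol·l^-1) competed with 125I-PrRP31 (final 5×10^-11 mol·l^-1) on adherent human GPR10 CHO cells. Binding ran 1 h at room temperature, pH 7.4 buffer with NaCl, MgCl2, CaCl2, glucose, BSA; cell-bound radioactivity counted after NaOH lysis.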

Ki (rat PrRP receptor)	Displacement of rat 125I-PrRP binding (rat PrRP receptor)	% of PrRP31, RC-4B/C rat pituitary cells (rat PrRP receptor)	Ki [1]	% of PrRP31, GPR10 human receptor transfected in CHO cells [1]	Displacement of human 125I-PrRP binding [1]	Compound	Food intake in mice % of saline-treated group (C57BL/6 mice)
–	–	575%	–	103%	–	CCCCCCCCCCCCCCCC(=O)NCCCOCCOCCOCCCNC(=O)CCC(=O)NCCCC[C@H](NC(=O)[C@@H](NC(=O)[C@H](CCC(=O)O)NC(=O)[C@H](CCSC)NC(=O)[C@H](CO)NC(=O)[C@H](Cc1c[nH]cn1)NC(=O)[C@H](CCCNC(=N)N)NC(=O)[C@H](Cc1c[nH]cn1)NC(=O)[C@@H](NC(=O)[C@H](CCC(=O)O)NC(=O)[C@@H](N)CO)[C@@H](C)O)[C@@H](C)CC)C(=O)N[C@H](C(=O)N1CCC[C@H]1C(=O)N[C@@H](CC(=O)O)C(=O)N[C@H](C(=O)N[C@@H](CC(N)=O)C(=O)N1CCC[C@H]1C(=O)N[C@@H](C)C(=O)N[C@@H](Cc1c[nH]c2ccccc12)C(=O)N[C@@H](Cc1ccc(O)cc1)C(=O)N[C@@H](C)C(=O)N[C@@H](CO)C(=O)N[C@@H](CCCNC(=N)N)C(=O)NCC(=O)N[C@H](C(=O)N[C@@H](CCCNC(=N)N)C(=O)N1CCC[C@H]1C(=O)N[C@H](C(=O)NCC(=O)N[C@@H](CCCNC(=N)N)C(=O)N[C@@H](Cc1ccccc1)C(N)=O)C(C)C)[C@@H](C)CC)[C@@H](C)CC)[C@@H](C)O [Analog 58] (H-SETHRHSMEIK([Suc-TTDA(Palmitoyl)])TPDINPAWYASRGIRPVGRF-NH2; N-terminus assumed)	7%
–	–	85%	32.4 ± 3.57 nM	12%	–	CCCCCCCCCCCCCCCC(=O)NCCCOCCOCCOCCCNC(=O)CCC(=O)NCCCC[C@H](NC(=O)[C@@H](NC(=O)[C@H](CCC(=O)O)NC(=O)[C@H](CCSC)NC(=O)[C@H](CO)NC(=O)[C@H](Cc1c[nH]cn1)NC(=O)[C@H](CCCNC(=N)N)NC(=O)[C@H](Cc1c[nH]cn1)NC(=O)[C@@H](NC(=O)[C@H](CCCNC(=N)N)NC(=O)[C@H](CO)NC(=O)CCC(=O)NCCCOCCOCCOCCCNC(=O)CCCCCCCCCCCCCCC)[C@@H](C)O)[C@@H](C)CC)C(=O)N[C@H](C(=O)N1CCC[C@H]1C(=O)N[C@@H](CC(=O)O)C(=O)N[C@H](C(=O)N[C@@H](CC(N)=O)C(=O)N1CCC[C@H]1C(=O)N[C@@H](C)C(=O)N[C@@H](Cc1c[nH]c2ccccc12)C(=O)N[C@@H](Cc1ccc(O)cc1)C(=O)N[C@@H](C)C(=O)N[C@@H](CO)C(=O)N[C@@H](CCCNC(=N)N)C(=O)NCC(=O)N[C@H](C(=O)N[C@@H](CCCNC(=N)N)C(=O)N1CCC[C@H]1C(=O)N[C@H](C(=O)NCC(=O)N[C@@H](CCCNC(=N)N)C(=O)N[C@@H](Cc1ccccc1)C(N)=O)C(C)C)[C@@H](C)CC)[C@@H](C)CC)[C@@H](C)O [Analog 59] ({TTDA(Palmitoyl)-Suc}-SRTHRHSMEIK([Suc-TTDA(Palmitoyl)])TPDINPAWYASRGIRPVGRF-NH2)	23%
–	–	143%	5.56 ± 0.7 nM	70%	–	TPDINPAWYTGRGIRPVGRF-NH2 [Rat PrRP20, reference compound]	100%

Continued, compound first:

Compound	Ki (rat PrRP receptor)	Displacement of rat 125I-PrRP binding (rat PrRP receptor)	% of PrRP31, RC-4B/C rat pituitary cells (rat PrRP receptor)	Ki [1]	% of PrRP31, GPR10 human receptor transfected in CHO cells [1]	Displacement of human 125I-PrRP binding [1]	Food intake in mice % of saline-treated group (C57BL/6 mice)
CCCCCCCCCC(=O)N[C@H](C(=O)N1CCC[C@H]1C(=O)N[C@@H](CC(=O)O)C(=O)N[C@H](C(=O)N[C@@H](CC(N)=O)C(=O)N1CCC[C@H]1C(=O)N[C@@H](C)C(=O)N[C@@H](Cc1c[nH]c2ccccc12)C(=O)N[C@@H](Cc1ccc(O)cc1)C(=O)N[C@@H](C)C(=O)N[C@@H](CO)C(=O)N[C@@H](CCCNC(=N)N)C(=O)NCC(=O)N[C@H](C(=O)N[C@@H](CCCNC(=N)N)C(=O)N1CCC[C@H]1C(=O)N[C@H](C(=O)NCC(=O)N[C@@H](CCCNC(=N)N)C(=O)N[C@@H](Cc1ccccc1)C(N)=O)C(C)C)[C@@H](C)CC)[C@@H](C)CC)[C@@H](C)O [Analog 40] (Decanoyl-TPDINPAWYASRGIRPVGRF-NH2)	0.41 ± 0.01 nM	nmol·l^−1 range	1202%	3.02 ± 0.49 nM	129%	nmol·l^−1 range	100%
CCCCCCCCCCCC(=O)N[C@H](C(=O)N1CCC[C@H]1C(=O)N[C@@H](CC(=O)O)C(=O)N[C@H](C(=O)N[C@@H](CC(N)=O)C(=O)N1CCC[C@H]1C(=O)N[C@@H](C)C(=O)N[C@@H](Cc1c[nH]c2ccccc12)C(=O)N[C@@H](Cc1ccc(O)cc1)C(=O)N[C@@H](C)C(=O)N[C@@H](CO)C(=O)N[C@@H](CCCNC(=N)N)C(=O)NCC(=O)N[C@H](C(=O)N[C@@H](CCCNC(=N)N)C(=O)N1CCC[C@H]1C(=O)N[C@H](C(=O)NCC(=O)N[C@@H](CCCNC(=N)N)C(=O)N[C@@H](Cc1ccccc1)C(N)=O)C(C)C)[C@@H](C)CC)[C@@H](C)CC)[C@@H](C)O [Analog 41] (Lauroyl-TPDINPAWYASRGIRPVGRF-NH2)	0.6 ± 0.22 nM	nmol·l^−1 range	822%	–	161%	nmol·l^−1 range	85%
CCCCCCCCCCCCCC(=O)N[C@@H](CO)C(=O)N[C@@H](CCCNC(=N)N)C(=O)N[C@H](C(=O)N[C@@H](Cc1c[nH]cn1)C(=O)N[C@@H](CCCNC(=N)N)C(=O)N[C@@H](Cc1c[nH]cn1)C(=O)N[C@@H](CO)C(=O)N[C@@H](CCSC)C(=O)N[C@@H](CCC(=O)O)C(=O)N[C@H](C(=O)N[C@@H](CCCNC(=N)N)C(=O)N[C@H](C(=O)N1CCC[C@H]1C(=O)N[C@@H](CC(=O)O)C(=O)N[C@H](C(=O)N[C@@H](CC(N)=O)C(=O)N1CCC[C@H]1C(=O)N[C@@H](C)C(=O)N[C@@H](Cc1c[nH]c2ccccc12)C(=O)N[C@@H](Cc1ccc(O)cc1)C(=O)N[C@@H](C)C(=O)N[C@@H](CO)C(=O)N[C@@H](CCCNC(=N)N)C(=O)NCC(=O)N[C@H](C(=O)N[C@@H](CCCNC(=N)N)C(=O)N1CCC[C@H]1C(=O)N[C@H](C(=O)NCC(=O)N[C@@H](CCCNC(=N)N)C(=O)N[C@@H](Cc1ccccc1)C(N)=O)C(C)C)[C@@H](C)CC)[C@@H](C)CC)[C@@H](C)O)[C@@H](C)CC)[C@@H](C)O [Analog 42]	0.48 ± 0.18 nM	–	1027%	–	83%	–	10%
CCCCCCCCCCCCCCCC(=O)N[C@@H](CCC(=O)NCCCC[C@H](NC(=O)[C@@H](NC(=O)[C@H](CCC(=O)O)NC(=O)[C@H](CCSC)NC(=O)[C@H](CO)NC(=O)[C@H](Cc1c[nH]cn1)NC(=O)[C@H](CCC(=O)O)NC(=O)[C@H](Cc1c[nH]cn1)NC(=O)[C@@H](NC(=O)[C@H](CCC(=O)O)NC(=O)[C@@H](N)CO)[C@@H](C)O)[C@@H](C)CC)C(=O)N[C@H](C(=O)N1CCC[C@H]1C(=O)N[C@@H](CC(=O)O)C(=O)N[C@H](C(=O)N[C@@H](CC(N)=O)C(=O)N1CCC[C@H]1C(=O)N[C@@H](C)C(=O)N[C@@H](Cc1c[nH]c2ccccc12)C(=O)N[C@@H](Cc1ccc(O)cc1)C(=O)N[C@@H](C)C(=O)N[C@@H](CO)C(=O)N[C@@H](CCCNC(=N)N)C(=O)NCC(=O)N[C@H](C(=O)N[C@@H](CCCNC(=N)N)C(=O)N1CCC[C@H]1C(=O)N[C@H](C(=O)NCC(=O)N[C@@H](CCCNC(=N)N)C(=O)N[C@@H](Cc1ccccc1)C(N)=O)C(C)C)[C@@H](C)CC)[C@@H](C)CC)[C@@H](C)O)C(=O)O [Analog 56] (H-SETHEHSMEIK([γGlu-Palmitoyl])TPDINPAWYASRGIRPVGRF-NH2)	4.23 ± 2.11 nM	–	57%	5.66 ± 0.39 nM	57%	–	10%
SRAHQHSMETRTPDINPAWYTGRGIRPVGRF-NH2 [Rat PrRP31, reference compound]	–	–	100%	–	100%	–	100%

From US10350271B2, “Lipidated peptides for lowering blood glucose” (USTAV ORGANICKE CHEMIE A BIOCHEMIE AKADEMIE VED CR, V.V.I., priority 2014, dated 2019)
